Laboratory results taken from publication PMC10276154, “Development of the nonreceptor tyrosine kinase FER-targeting PROTACs as a potential strategy for antagonizing ovarian cancer cell motility and invasiveness” (The Journal of Biological Chemistry, 2023).

Target: FER (Homo sapiens, UniProt P16591)
Test: pY402-FER autophosphorylation immunoblot in HEK293FT cells transfected with pLV-FER, […] h
Assay type: cell-based

Sequence of FER (P16591 whole entry): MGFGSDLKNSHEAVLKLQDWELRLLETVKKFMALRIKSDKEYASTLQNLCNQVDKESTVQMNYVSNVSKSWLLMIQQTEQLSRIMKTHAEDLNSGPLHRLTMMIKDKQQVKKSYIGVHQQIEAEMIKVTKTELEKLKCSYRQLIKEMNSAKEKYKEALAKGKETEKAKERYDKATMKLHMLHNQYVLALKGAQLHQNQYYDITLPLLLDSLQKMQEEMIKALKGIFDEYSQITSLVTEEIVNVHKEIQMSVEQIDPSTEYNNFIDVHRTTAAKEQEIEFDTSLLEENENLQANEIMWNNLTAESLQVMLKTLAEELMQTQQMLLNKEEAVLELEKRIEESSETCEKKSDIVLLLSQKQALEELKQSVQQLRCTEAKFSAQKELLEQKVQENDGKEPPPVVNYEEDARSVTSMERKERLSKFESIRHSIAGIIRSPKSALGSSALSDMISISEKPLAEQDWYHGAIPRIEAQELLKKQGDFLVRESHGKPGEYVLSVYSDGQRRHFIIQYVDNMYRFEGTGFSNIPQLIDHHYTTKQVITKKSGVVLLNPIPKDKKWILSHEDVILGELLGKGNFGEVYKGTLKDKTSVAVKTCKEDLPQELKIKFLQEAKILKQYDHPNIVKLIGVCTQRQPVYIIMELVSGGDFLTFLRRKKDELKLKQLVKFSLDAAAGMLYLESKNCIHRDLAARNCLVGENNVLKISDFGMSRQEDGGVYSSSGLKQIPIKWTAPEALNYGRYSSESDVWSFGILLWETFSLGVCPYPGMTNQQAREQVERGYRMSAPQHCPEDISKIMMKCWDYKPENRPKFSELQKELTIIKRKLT

COc1cc(N2CCC(N3CCN(C)CC3)CC2)ccc1Nc1ncc(Cl)c(Nc2ccccc2P(C)(C)=O)n1 [brigatinib]
IC50: 138 nM
